Assay [1] concerns the target Recombinant wild type LRRK2 protein (Homo sapiens (Human), UniProt Q5S007). In words: LRRK2 kinase activity, LanthaScreen TR-FRET assay (wild type). It is filed as biochemical. Conditions: LRRKtide 400 nM, 25 μM ATP, 60 min; read-out: LRRK2 WT IC50. On the procedure:
(§1) LRRK2 kinase activity was measured using a LanthaScreen™ Kinase Activity Assay from ThermoFisher Scientific. Recombinant wild type or G2019S-LRRK2 protein (Life Technologies, PR8604B or PV4881, respectively), was incubated with a fluorescein-labeled peptide substrate called LRRKtide that is based upon ezrin/radixin/moesin (ERM) (Life Technologies, PV4901) in the presence of ATP and serially diluted compound. […] Compound-dependent inhibition of the TR-FRET signal was used to generate a concentration-response curve for IC50 determination.
(§2) After 60 min incubation at room temperature, the reaction was stopped by addition of 10 μL of 2× stop solution containing a final concentration of 2 nM anti-pERM antibody and 10 mM EDTA. […] The ratio of the 520 nm and 495 nm emission was used to analyze the data.
Background: Time-resolved FRET reads energy transfer from a long-lived donor to a nearby acceptor.

The target in assay [2] is Recombinant G2019S-LRRK2 protein (Homo sapiens (Human), UniProt Q5S007, G2019S). Description: LRRK2 kinase activity, LanthaScreen TR-FRET assay (G2019S). The class given is biochemical. The conditions noted are these: LRRKtide 400 nM, 25 μM ATP, 60 min. On the procedure: as §1, §2
Sequence of Recombinant G2019S-LRRK2 protein (Q5S007 whole entry G2019S): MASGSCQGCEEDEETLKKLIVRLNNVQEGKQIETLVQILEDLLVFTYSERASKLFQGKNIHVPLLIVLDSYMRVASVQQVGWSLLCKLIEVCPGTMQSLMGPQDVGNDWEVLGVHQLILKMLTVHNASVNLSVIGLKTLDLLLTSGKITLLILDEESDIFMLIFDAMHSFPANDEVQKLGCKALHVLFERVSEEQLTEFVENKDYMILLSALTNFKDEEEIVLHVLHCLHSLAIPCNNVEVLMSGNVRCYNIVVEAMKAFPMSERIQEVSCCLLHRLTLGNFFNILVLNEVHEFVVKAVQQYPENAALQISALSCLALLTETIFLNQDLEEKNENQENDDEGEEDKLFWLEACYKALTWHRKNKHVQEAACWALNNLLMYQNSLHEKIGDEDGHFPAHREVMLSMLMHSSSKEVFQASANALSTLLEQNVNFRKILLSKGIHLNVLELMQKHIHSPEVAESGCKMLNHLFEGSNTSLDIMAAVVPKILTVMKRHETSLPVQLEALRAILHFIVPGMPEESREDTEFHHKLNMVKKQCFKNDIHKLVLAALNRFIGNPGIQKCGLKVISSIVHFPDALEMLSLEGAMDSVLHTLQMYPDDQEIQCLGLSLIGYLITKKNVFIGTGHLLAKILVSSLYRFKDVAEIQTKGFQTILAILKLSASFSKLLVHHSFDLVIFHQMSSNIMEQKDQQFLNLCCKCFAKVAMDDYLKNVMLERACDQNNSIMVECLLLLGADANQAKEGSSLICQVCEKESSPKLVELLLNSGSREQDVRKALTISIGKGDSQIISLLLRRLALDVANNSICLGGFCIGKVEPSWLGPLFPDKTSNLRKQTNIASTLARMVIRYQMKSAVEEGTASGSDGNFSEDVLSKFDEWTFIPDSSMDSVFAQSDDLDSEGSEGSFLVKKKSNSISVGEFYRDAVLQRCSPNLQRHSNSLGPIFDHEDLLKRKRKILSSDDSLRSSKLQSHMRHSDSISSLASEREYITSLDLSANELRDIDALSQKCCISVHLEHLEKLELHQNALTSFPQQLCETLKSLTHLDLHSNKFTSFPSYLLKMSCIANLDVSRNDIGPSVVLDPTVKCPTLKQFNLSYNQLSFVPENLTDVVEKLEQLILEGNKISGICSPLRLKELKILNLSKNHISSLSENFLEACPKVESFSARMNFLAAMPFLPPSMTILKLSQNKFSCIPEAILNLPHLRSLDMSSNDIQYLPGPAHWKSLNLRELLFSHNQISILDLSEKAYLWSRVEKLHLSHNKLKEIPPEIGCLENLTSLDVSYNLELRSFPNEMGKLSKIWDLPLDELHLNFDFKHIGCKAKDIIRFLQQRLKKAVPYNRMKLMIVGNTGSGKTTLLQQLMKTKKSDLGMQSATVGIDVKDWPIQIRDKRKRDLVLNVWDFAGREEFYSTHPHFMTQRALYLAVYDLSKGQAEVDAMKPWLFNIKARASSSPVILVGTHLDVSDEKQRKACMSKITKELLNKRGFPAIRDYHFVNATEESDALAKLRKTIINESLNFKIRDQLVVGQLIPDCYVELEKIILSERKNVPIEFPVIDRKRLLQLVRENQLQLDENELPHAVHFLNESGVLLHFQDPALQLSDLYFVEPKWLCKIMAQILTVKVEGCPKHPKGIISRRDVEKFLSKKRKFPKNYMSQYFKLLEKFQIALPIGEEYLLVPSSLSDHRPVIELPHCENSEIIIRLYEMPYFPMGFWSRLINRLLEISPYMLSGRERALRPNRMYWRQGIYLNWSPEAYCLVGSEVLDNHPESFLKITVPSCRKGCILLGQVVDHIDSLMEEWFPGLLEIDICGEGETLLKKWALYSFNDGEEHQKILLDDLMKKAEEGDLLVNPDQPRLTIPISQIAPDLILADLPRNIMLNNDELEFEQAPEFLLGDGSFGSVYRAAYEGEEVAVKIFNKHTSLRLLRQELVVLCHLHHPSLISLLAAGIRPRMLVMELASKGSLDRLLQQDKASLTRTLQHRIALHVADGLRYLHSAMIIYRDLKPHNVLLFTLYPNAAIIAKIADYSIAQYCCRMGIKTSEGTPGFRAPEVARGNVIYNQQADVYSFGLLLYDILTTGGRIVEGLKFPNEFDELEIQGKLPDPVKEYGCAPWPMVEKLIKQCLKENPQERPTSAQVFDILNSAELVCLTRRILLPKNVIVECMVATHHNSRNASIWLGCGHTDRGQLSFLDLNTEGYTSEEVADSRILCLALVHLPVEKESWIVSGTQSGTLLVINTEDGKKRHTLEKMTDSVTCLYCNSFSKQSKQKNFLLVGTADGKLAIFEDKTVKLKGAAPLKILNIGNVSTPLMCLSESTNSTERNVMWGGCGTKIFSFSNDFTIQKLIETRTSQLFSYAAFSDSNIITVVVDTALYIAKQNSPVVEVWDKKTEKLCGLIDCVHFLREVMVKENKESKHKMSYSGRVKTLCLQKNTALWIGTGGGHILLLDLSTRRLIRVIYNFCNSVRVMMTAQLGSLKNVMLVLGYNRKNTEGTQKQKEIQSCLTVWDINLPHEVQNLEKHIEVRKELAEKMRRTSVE

Where only a bound is given, the exact number is not on record here.

Sequence of Recombinant wild type LRRK2 protein (Q5S007 whole entry): as the sequence (Q5S007 whole entry G2019S) above, with S2019G counted along it

Usually IC50 stands for the concentration at which inhibition is half-maximal. In the case of `Cc1cc(C#N)cnc1C(=O)Nc1ccc2[nH]nc(-c3ccc(C(F)(F)F)nc3)c2c1` [Example 60, 5-Cyano-3-methyl-N-(3-(6-(trifluoromethyl)pyridin-3-yl)-1H-indazol-5-yl)picolinamide], the IC50 in assay [1] fell in the range of 1 to 10 µM; in assay [2], 0.1 to 1 µM.
In the same order, the values of `N#Cc1ncc(C(=O)Nc2ccc3[nH]nc(-c4ccoc4)c3c2)s1` [Example 20, 2-Cyano-N-(3-(furan-3-yl)-1H-indazol-5-yl)thiazole-5-carboxamide] are 0.1 to 1 µM and less than 0.1 µM.
In the same order, the values of `Cc1cc(C#N)cc(C(=O)Nc2ccc3[nH]nc(-c4ccoc4)c3c2)n1` [Example 78, 4-Cyano-N-(3-(furan-3-yl)-1H-indazol-5-yl)-6-methylpicolinamide] are 0.1 to 1 µM and less than 0.1 µM.
In the same order, the values of `Cc1cccc(-c2n[nH]c3ccc(NC(=O)c4ncc(C#N)cc4C)cc23)n1` [Example 112, 5-Cyano-3-methyl-N-(3-(6-methylpyridin-2-yl)-1H-indazol-5-yl)picolinamide] are 0.1 to 1 µM and 0.1 to 1 µM.
Turning to `Cc1c(C(=O)Nc2ccc3[nH]nc(-c4cnoc4)c3c2)nc(Cl)c(C#N)c1C` [Example 216, 6-Chloro-5-cyano-N-(3-(isoxazol-4-yl)-1H-indazol-5-yl)-3,4-dimethylpicolinamide], the IC50 in assay [1] and in assay [2] was less than 0.1 µM throughout.
On to `Cc1c(C#N)nn(C)c1C(=O)Nc1ccc2[nH]nc(-c3cnco3)c2c1` [Example 239, 3-Cyano-1,4-dimethyl-N-(3-(oxazol-5-yl)-1H-indazol-5-yl)-1H-pyrazole-5-carboxamide], for which the figures for the IC50 in assay [1] and in assay [2] were less than 0.1 µM and 0.1 to 1 µM, respectively.
In the same order, the values of `Cc1c(C#N)cnc(C(=O)Nc2ccc3[nH]nc(-c4cncc(Cl)c4)c3c2)c1C` [Example 171, N-(3-(5-Chloropyridin-3-yl)-1H-indazol-5-yl)-5-cyano-3,4-dimethylpicolinamide] are less than 0.1 µM and less than 0.1 µM.
In the same order, the values of `Cc1cc(C#N)cnc1C(=O)Nc1ccc2[nH]nc(-n3ccnc3)c2c1` [Example 126, N-(3-(1H-Imidazol-1-yl)-1H-indazol-5-yl)-5-cyano-3-methylpicolinamide] are 0.1 to 1 µM and less than 0.1 µM.
In the same order, the values of `Cc1c(C#N)cnc(C(=O)Nc2ccc3[nH]nc(C=C4COC4)c3c2)c1C` [Example 263, 5-Cyano-3,4-dimethyl-N-(3-(oxetan-3-ylidenemethyl)-1H-indazol-5-yl)picolinamide] are 1 to 10 µM and 0.1 to 1 µM.
Take `CCc1c(C(=O)Nc2ccc3[nH]nc(-c4cnco4)c3c2)ccnc1C#N` [Example 232, 2-Cyano-3-ethyl-N-(3-(oxazol-5-yl)-1H-indazol-5-yl)isonicotinamide]: the IC50 in assay [1] and in assay [2] was less than 0.1 µM throughout.
Regarding `Cc1cc(C#N)cnc1C(=O)Nc1cc(F)c2[nH]nc(-c3ccoc3)c2c1` [Example 143, 5-Cyano-N-(7-fluoro-3-(furan-3-yl)-1H-indazol-5-yl)-3-methylpicolinamide], the values for the IC50 in assay [1] and in assay [2] were 0.1 to 1 µM and less than 0.1 µM, respectively.
On to `COc1cc(C#N)ccc1C(=O)Nc1ccc2[nH]nc(-c3cnco3)c2c1` [Example 200, 4-Cyano-2-methoxy-N-(3-(oxazol-5-yl)-1H-indazol-5-yl)benzamide], for which the IC50 in assay [1] and in assay [2] was less than 0.1 µM each time.
`Cc1cc(C#N)cnc1C(=O)Nc1ccc2[nH]nc(-c3cc(C#N)cs3)c2c1` [Example 130, 5-Cyano-N-(3-(4-cyanothiophen-2-yl)-1H-indazol-5-yl)-3-methylpicolinamide]: the IC50 in assay [1] and in assay [2] was less than 0.1 µM in each case.
Consider `N#Cc1cnc(C(=O)Nc2ccc3[nH]nc(-c4ccoc4)c3c2)c(Br)c1` [Example 138, 3-Bromo-5-cyano-N-(3-(furan-3-yl)-1H-indazol-5-yl)picolinamide], for which the IC50 in assay [1] and in assay [2] was less than 0.1 µM throughout.
Take `Cc1cc(C#N)cnc1C(=O)Nc1ccc2[nH]nc(-c3cccc(C#N)c3)c2c1` [Example 41, 5-Cyano-N-(3-(3-cyanophenyl)-1H-indazol-5-yl)-3-methylpicolinamide]: the IC50 was 0.1 to 1 µM in assay [1] and less than 0.1 µM in assay [2].
In the same order, the values of `Cc1c(C(=O)Nc2ccc3[nH]nc(C#N)c3c2)nc(Cl)c(C#N)c1C` [Example 290, 6-Chloro-5-cyano-N-(3-cyano-1H-indazol-5-yl)-3,4-dimethylpicolinamide] are less than 0.1 µM and less than 0.1 µM.
In the same order, the values of `Cc1ccc(C#N)c(F)c1C(=O)Nc1ccc2[nH]nc(-c3ccoc3)c2c1` [Example 128, 3-Cyano-2-fluoro-N-(3-(furan-3-yl)-1H-indazol-5-yl)-6-methylbenzamide] are less than 0.1 µM and less than 0.1 µM.
In the same order, the values of `Cc1cc(C#N)cnc1C(=O)Nc1ccc2[nH]nc(-c3ccn(C)n3)c2c1` [Example 153, 5-Cyano-3-methyl-N-(3-(1-methyl-1H-pyrazol-3-yl)-1H-indazol-5-yl)picolinamide] are 1 to 10 µM and 0.1 to 1 µM.
Consider `Cc1c(C(=O)Nc2ccc3[nH]nc(C4CC4)c3c2)ncc(C#N)c1C(F)(F)F` [Example 286, 5-Cyano-N-(3-cyclopropyl-1H-indazol-5-yl)-3-methyl-4-(trifluoromethyl)picolinamide], for which the results for the IC50 in assay [1] and in assay [2] were 1 to 10 µM and less than 0.1 µM, respectively.
In the same order, the values of `Cc1cc(C#N)cnc1C(=O)Nc1ccc2[nH]nc(-c3ccc(=O)n(C)c3)c2c1` [Example 151, 5-Cyano-3-methyl-N-(3-(1-methyl-6-oxo-1,6-dihydropyridin-3-yl)-1H-indazol-5-yl)picolinamide] are 0.1 to 1 µM and less than 0.1 µM.
In the same order, the values of `Cc1c(C#N)cnc(C(=O)Nc2ccc3[nH]nc(-c4cnn(C5COC5)c4)c3c2)c1C` [Example 221, 5-Cyano-3,4-dimethyl-N-(3-(1-(oxetan-3-yl)-1H-pyrazol-4-yl)-1H-indazol-5-yl)picolinamide] are less than 0.1 µM and less than 0.1 µM.
In the same order, the values of `Cc1cc(C#N)cnc1C(=O)Nc1ccc2[nH]nc(-c3ccoc3)c2c1` [Example 14, 5-Cyano-N-(3-(furan-3-yl)-1H-indazol-5-yl)-3-methylpicolinamide] are […] and […].
With `N#Cc1ccc(C(=O)Nc2ccc3[nH]nc(-c4ccoc4)c3c2)c(O)c1` [Example 107, 4-Cyano-N-(3-(furan-3-yl)-1H-indazol-5-yl)-2-hydroxybenzamide], the IC50 in assay [1] and in assay [2] was 0.1 to 1 µM throughout.
Turning to `Cc1c(C#N)cn(C)c1C(=O)Nc1ccc2[nH]nc(-c3cnoc3)c2c1` [Example 246, 4-Cyano-N-(3-(isoxazol-4-yl)-1H-indazol-5-yl)-1,3-dimethyl-1H-pyrrole-2-carboxamide], the IC50 in assay [1] and in assay [2] was less than 0.1 µM in each case.
With `CCOc1cc(-c2n[nH]c3ccc(NC(=O)c4ncc(C#N)c(C)c4C)cc23)ccn1` [Example 205, 5-Cyano-N-(3-(2-ethoxypyridin-4-yl)-1H-indazol-5-yl)-3,4-dimethylpicolinamide], the IC50 in assay [1] and in assay [2] was less than 0.1 µM in each case.
Turning to `N#Cc1ccc(F)c(C(=O)Nc2ccc3[nH]nc(-c4ccoc4)c3c2)c1` [Example 122, 5-Cyano-2-fluoro-N-(3-(furan-3-yl)-1H-indazol-5-yl)benzamide], the IC50 in assay [1] and in assay [2] was less than 0.1 µM each time.
Take `Cc1ccc(-c2n[nH]c3ccc(NC(=O)c4ncc(C#N)cc4C)cc23)o1` [Example 141, 5-Cyano-3-methyl-N-(3-(5-methylfuran-2-yl)-1H-indazol-5-yl)picolinamide]: the IC50 in assay [1] and in assay [2] was less than 0.1 µM each time.
On to `COc1c(C#N)cccc1C(=O)Nc1ccc2[nH]nc(-c3cnn(C(F)F)c3)c2c1` [Example 164, 3-Cyano-N-(3-(1-(difluoromethyl)-1H-pyrazol-4-yl)-1H-indazol-5-yl)-2-methoxybenzamide], for which the IC50 in assay [1] and in assay [2] was less than 0.1 µM throughout.
Take `C#Cc1cc(C#N)cnc1C(=O)Nc1ccc2[nH]nc(-c3ccoc3)c2c1` [Example 150]: the IC50 in assay [1] and in assay [2] was 0.1 to 1 µM in each case.
Turning to `Cc1c(C#N)cnc(C(=O)Nc2ccc3[nH]nc(-c4cncs4)c3c2)c1C` [Example 227, 5-Cyano-3,4-dimethyl-N-(3-(thiazol-5-yl)-1H-indazol-5-yl)picolinamide], the IC50 in assay [1] and in assay [2] was less than 0.1 µM each time.
With `Cc1cc(C#N)ccc1C(=O)Nc1ccc2[nH]nc(-c3ccoc3)c2c1` [Example 18, 4-Cyano-N-(3-(furan-3-yl)-1H-indazol-5-yl)-2-methylbenzamide], the IC50 in assay [1] and in assay [2] was less than 0.1 µM throughout.
Regarding `Cc1cc(C#N)cnc1C(=O)Nc1ccc2[nH]nc(-c3ccnnc3)c2c1` [Example 272, 5-Cyano-3-methyl-N-(3-(pyridazin-4-yl)-1H-indazol-5-yl)picolinamide], the IC50 in assay [1] was 0.1 to 1 µM; in assay [2], less than 0.1 µM.
In the same order, the values of `Cc1c(C#N)cnc(C(=O)Nc2ccc3[nH]nc(C=C4CCC4)c3c2)c1C` [Example 276, 5-Cyano-N-(3-(cyclobutylidenemethyl)-1H-indazol-5-yl)-3,4-dimethylpicolinamide] are 0.1 to 1 µM and less than 0.1 µM.
In the same order, the values of `COC(C)c1n[nH]c2ccc(NC(=O)c3ncc(C#N)c(C)c3C)cc12` (centres unmarked) [Example 269, 5-Cyano-N-(3-(1-methoxyethyl)-1H-indazol-5-yl)-3,4-dimethylpicolinamide] are more than 10 µM and 1 to 10 µM.

For the origin of these results see patent US11427558B1, “Indazoles and azaindazoles as LRRK2 inhibitors” (ESCAPE Bio, Inc., priority 2019, dated 2022).
